The record followed here is patent US9018209B2, “Compounds and methods for the treatment of viruses and cancer” (Yale University, priority 2005, dated 2015).

In data set [1] the test system is MT-2 human T-cells. The experiment in a line: Cytotoxicity: inhibition of MT-2 cell growth. It is filed as cell-based. An excerpt:
(§1) The preparation of the analogues 4a-h involved the reaction between 2-bromothiazole 1 with the corresponding 5-amino-2-R-phenol 2, followed by reaction with 4-bromo-2-methyl-2-butene in presence of Cs2CO3 as a base (Scheme 1; see Table 1 for antiviral activities (EC50) and cytotoxicities (IC50) of these compounds, as determined using human MT-2 cells infected with IIIB strain of HIV-1).
(§2) See, Ruiz-Caro, supra. and Lin, et al., Biochem. Pharmacol. 1994, 47, 171-174.

Data set [2] deals with IIIB strain of HIV-1. The experiment in a line: Anti-HIV-1 activity: protection of infected MT-2 cells, MTT colorimetric method. The data set is classed as cell-based. In general terms: Tetrazolium dyes change colour on reduction, which living cells bring about.
The nature of data set [3]: Cytotoxicity: inhibition of MT-2 cell growth. It is filed as cell-based, human. The settings on record: human, MT-2 T-cells; Table 2b; MT-2 cells.
Description: as §1, §2

The mark [4] stands for this setting: Homo sapiens, MT2, Table of bicyclic-heteroaryl phenyl amines, cytotoxicity, MT-2 cell assays, read-out: IC50.
Setting [5] is: Human immunodeficiency virus 1, IIIB, MT2, Table of bicyclic-heteroaryl phenyl amines, MT-2 cell assays, read-out: EC50.
Setting [6] is: Table 1B, for 50% inhibition of MT-2 cell growth, triplicate samples.
Where [7] appears, read: Table 1B, for 50% protection in MT-2 cells, triplicate samples, NA for EC50 > CC50, read-out: EC50.
[8] abbreviates: Homo sapiens, MT2, Table 1a, cytotoxicity, MT-2 cells, read-out: IC50.
Where [9] appears, read: Human immunodeficiency virus 1, IIIB, MT2, read-out: EC50.
Setting [10] is: Human immunodeficiency virus 1, IIIB, MT2, Table 1a, heteroaryl derivatives, N/A read as no activity, read-out: EC50.
[11] abbreviates: Human immunodeficiency virus 1, IIIB, MT2.

Like-named read-outs stand apart in the source and are kept apart here.

`COc1ccc(Nc2nccs2)cc1OCC=C(C)C` [Compound 4c, N-(4-methoxy-3-(3-methylbut-2-enyloxy)phenylthiazol)-2-amine]: in data set [1] (Table 1, cytotoxicity, MT-2 cells, read-out: IC50), the IC50 came out at 42000 nM. Also, in data set [2] (Table 1, compounds 4a-h, human MT-2 cells infected with IIIB strain of HIV-1, N/A read as no activity, read-out: EC50), the concentration giving a half-maximal response (EC50) turned out to be 3800 nM.
Take `C/C=C/COc1cc(Nc2ncccn2)ccc1Cl` [Compound 11a]: it took 31000 nM to reach half-maximal cytotoxicity in data set [1] (Table 2b, MT-2 cells) (CC50). Further, the “fold lower potency (higher EC50) than the corresponding DMA ether” value in data set [2] (Table 2b compounds) is “ca. 10 fold”. In addition, in data set [2] (Table 2b, derivatives of pyrimidine 11, NA for EC50 > CC50, read-out: EC50), the half-maximal effective concentration (EC50) was 2300 nM.
As for `CC(C)=CCOc1cc(Nc2nccc3cccn23)ccc1Cl` [compound 59], in data set [1] (setting [4]), the half-maximal inhibitory concentration (IC50) was 17000 nM. Also, the EC50 in data set [2] (setting [5]) worked out at 130 nM.
As to `COc1cc(OC)nc(Nc2ccc(C#N)c(OCC=C(C)C)c2)n1` [Compound 10h], the midpoint of cytotoxicity in data set [1] (setting [6]), the CC50, lay at 810 nM. Moreover, the half-maximal effective concentration (EC50) in data set [2] (setting [7]) came to 160 nM.
Take `CC(C)=CCOc1cc(Nc2nccc(C)n2)ccc1Cl` [Compound 41d, N-(4-Chloro-3-(3-methylbut-2-enyloxy)phenyl)-4-methylpyrimidin-2-amine]: the IC50 in data set [1] (setting [8]) was less than 200 nM. The same compound showed a CC50 in data set [1] (setting [6]) of 150 nM. The EC50 in data set [2] (setting [9]) turned out to be 39 nM.
For `O=C1Nc2ccc(Cl)cc2[C@@](C#CC2CC2)(C(F)(F)F)O1` [Efavirenz, efavirenz, reference compound], in data set [1] (setting [4]), the IC50 is greater than 100 nM. The same compound showed a CC50 in data set [1] (setting [6]) greater than 100 nM. In data set [2] (setting [9]), the EC50 was 2 nM.
As for `CC(C)=CCOc1cc(Nc2nccc3ccoc23)ccc1Cl` [furopyridine 56a], the IC50 in data set [1] (Table of bicyclic-heteroaryl phenyl amines, cytotoxicity, MT-2 cell assays, read-out: IC50) was 21000 nM. Moreover, the EC50 in data set [2] (Table of bicyclic-heteroaryl phenyl amines, MT-2 cell assays, read-out: EC50) was 80 nM.
On to `CNc1ccnc(Nc2ccc(Cl)c(OCC=C(C)C)c2)n1` [Compound 9d], for which the CC50 in data set [1] (setting [6]) is 690 nM. In addition, in data set [2] (setting [7]), the 50% effective concentration (EC50) is 6 nM.
Regarding `CC(C)=CCOc1cc(Nc2nccc(N)n2)ccc1Cl` [Compound 40d, N^2-(4-Chloro-3-(3-methylbut-2-enyloxy)phenyl)pyrimidin-2,4-diamine], the half-maximal inhibitory concentration (IC50) in data set [1] (setting [8]) is greater than 1000 nM. Moreover, in data set [2] (setting [10]), the half-maximal effective concentration (EC50) was found to be 75 nM.
Compound `COc1ccc(Nc2nc(CO)cs2)cc1OCC=C(C)C` [Compound 10c, (2-(4-Methoxy-3-(3-methylbut-2-enyloxy)phenylamino)thiazol-4-yl)methanol] showed an IC50 in data set [1] (Homo sapiens, MT2) of 80000 nM. Besides, the EC50 in data set [2] (setting [11]) came to 9000 nM.
As to `CSc1ccnc(Nc2ccc(Cl)c(OCC=C(C)C)c2)n1` [Compound 9i], in data set [1] (setting [6]), the CC50 stood at 2800 nM. Besides, the EC50 in data set [2] (setting [7]) came to 18 nM.
Turning to `CCC(C)=CCOc1cc(Nc2nccs2)ccc1CC` (mixture of isomers) [Compound 18e, (E/Z)-N-(4-ethyl-3-(3-methylpent-2-enyloxy)phenyl)thiazol-2-amine], the IC50 in data set [1] (Table 3, cytotoxicity, MT-2 cells, read-out: IC50) is 29000 nM. The EC50 in data set [2] (Table 3, thiazoles 18-23, N/A read as no activity, read-out: EC50) amounted to 10000 nM.
For the compound `CC(C)=CCOc1cc(Nc2ncccn2)ccc1Cl` [Compound 39d, N-(4-Chloro-3-(3-methylbut-2-enyloxy)phenyl)pyrimidin-2-amine], the IC50 in data set [1] (setting [8]) is 2500 nM; in data set [1] (Homo sapiens, MT2, Table 2a, cytotoxicity, MT-2 cells, read-out: IC50), less than 200 nM. Besides, in data set [3], the CC50 turned out to be 2500 nM. For the same compound, the EC50 in data set [2] (setting [10]) worked out at 200 nM.
Take `CC(C)=CCOc1cc(Nc2nccc3cc[nH]c23)ccc1Cl` [compound 58]: the IC50 in data set [1] (setting [4]) turned out to be 9200 nM. Also, the EC50 in data set [2] (setting [5]) stood at 900 nM.
Compound `CSc1ncnc(Nc2ccc(C#N)c(OCC=C(C)C)c2)n1` [Compound 8i] yielded a CC50 in data set [1] (setting [6]) of 8400 nM. The EC50 in data set [2] (setting [7]) came out at 5 nM.
The matching figures for `COc1ncnc(Nc2ccc(Cl)c(OCC=C(C)C)c2)n1` [Compound 7b]: 18000 nM and 31 nM.
In turn, `COc1cc(OC)nc(Nc2ccc(Cl)c(OCC=C(C)C)c2)n1` [Compound 9h] returned a CC50 in data set [1] (setting [6]) of 28000 nM. In data set [2] (setting [7]), the EC50 is 250 nM.
As to `CC(C)=CCOc1cc(Nc2nc(CO)cs2)ccc1C` [Compound 10b, (2-(4-Methyl-3-(3-methylbut-2-enyloxy)phenylamino)thiazol-4-yl)methanol], the IC50 in data set [1] (Homo sapiens, MT2) came to 23000 nM. The EC50 in data set [2] (setting [11]) is 13000 nM.
With `Cc1nccc(C(F)(F)F)n1` [Compound 49], the half-inhibitory concentration (IC50) in data set [1] (setting [8]) is 2500 nM. In addition, the EC50 in data set [2] (setting [10]) stood at 65 nM.

As a reminder, the IC50 is the concentration that inhibits the measured activity by half. The EC50 is the midpoint of the concentration-response curve. By CC50 is commonly meant the concentration giving 50% cytotoxicity. A low value points to harm at low concentration.
